IC50 data for six molecules are collected here from patent publication US8546565B2, “Quinazolinamide derivatives” (Merck Patent Gesellschaft, priority 2008, dated 2013).

The experiment concerns the target T1, Recombinant human HSP90a (Homo sapiens, UniProt P07900).
T1 construct: host or cells: E. coli
The experiment in a line: HSP90 radioligand filter binding test ([3H]17AAG competition). The settings on record: [3H]17AAG 0.08 μM, HSP90 1.5 μg/assay, 22° C., 30 min; read-out: IC50 (HSP90 inhibition).
By IC50 is commonly meant the point on the concentration scale where inhibition reaches its midpoint. For the molecule `CCNC(=O)c1cc(F)ccc1-c1ccc2nc(N)nc(C(=O)N3Cc4ccccc4C3)c2c1` [Compound A83, 2-[2-Amino-4-(1,3-dihydroisoindole-2-carbonyl)quinazolin-6-yl]-N-ethyl-5-fluorobenzamide], the IC50 lay within 10 to 1000 nM.
The same measure for `CCNC(=O)c1cc(OC)c(OC)cc1-c1ccc2nc(N)nc(C(=O)N3Cc4ccccc4C3)c2c1` [Compound A84, 2-[2-Amino-4-(1,3-dihydroisoindole-2-carbonyl)quinazolin-6-yl]-N-ethyl-4,5-dimethoxybenzamide]: > 10000 nM.
Regarding `COc1cc(C(=O)NC(C)(C)C)c(-c2ccc3nc(N)nc(C(=O)N4Cc5ccccc5C4)c3c2)cc1OC` [Compound A85, 2-[2-Amino-4-(1,3-dihydroisoindole-2-carbonyl)quinazolin-6-yl]-N-tert-butyl-4,5-dimethoxybenzamide], the IC50 was > 10000 nM.
For `CCNC(=O)c1ccc(Cl)cc1-c1ccc2nc(N)nc(C(=O)N3Cc4ccccc4C3)c2c1` [Compound A86, 2-[2-Amino-4-(1,3-dihydroisoindole-2-carbonyl)quinazolin-6-yl]-4-chloro-N-ethylbenzamide] the value was 10 to 1000 nM.
In the case of `CCN(CC)C(=O)c1ccc(Cl)cc1-c1ccc2nc(N)nc(C(=O)N3Cc4ccccc4C3)c2c1` [Compound A87, 2-[2-Amino-4-(1,3-dihydroisoindole-2-carbonyl)quinazolin-6-yl]-4-chloro-N,N-diethylbenzamide], the IC50 lay in the range of 10 to 1000 nM.
For `CCN(CC)C(=O)c1cc(OC)c(OC)cc1-c1ccc2nc(N)nc(C(=O)N3Cc4ccccc4C3)c2c1` [Compound A88, 2-[2-Amino-4-(1,3-dihydroisoindole-2-carbonyl)quinazolin-6-yl]-N,N-diethyl-4,5-dimethoxybenzamide], the IC50 lay in the range of 1000 to 10000 nM.
